Consider eight molecules from PubChem BioAssay (NCI).

SMILES strings stand for the structures.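 96-well plates; 48 h exposure; 5 concentrations. Endpoints by linear interpolation between flanking doses. Not reached: highest tested concentration assigned. The concentration for full growth arrest is given as TGI.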

Among the test systems are HCT-116 colon; A549 NSCLC; NCI-H522 lung; SK-MEL-5 melanoma; HCC-2998 colon; MALME-3M melanoma; U251 CNS; COLO 205 colon; SF-268 CNS; SR leukemia; M14 melanoma; CCRF-CEM leukemia; SF-295 CNS; OVCAR-8 ovarian; K-562 leukemia; SF-539 CNS; MDA-N; LOX IMVI melanoma; MDA-MB-435; NCI/ADR-RES ovarian.
Assay in all cases: DTP human tumour cell line panel, 48 h

For the molecule `COC(=O)C(=O)C(C(=O)C1=NS(=O)(=O)c2cc(S(N)(=O)=O)c(Cl)cc2N1)c1nc2ccc(C(=O)c3ccccc3)cc2[nH]c1=O` (stereo not drawn), the TGI in the test on HCT-116 colon, in the test on A549 NSCLC, in the test with NCI-H522 lung, in the test with SK-MEL-5 melanoma, with HCC-2998 colon and with MALME-3M melanoma was more than 100 µM in each case. Further, the TGI in the test with U251 CNS, in the test with COLO 205 colon, in the test on SF-268 CNS, with SR leukemia, with M14 melanoma and with CCRF-CEM leukemia was more than 100 µM each time. The total growth inhibition concentration (TGI) in the test on SF-295 CNS, in the test with OVCAR-8 ovarian, with K-562 leukemia and in the test with SF-539 CNS was more than 100 µM throughout.
`Cc1cccc(O)c1-c1nnc(CCCCCCCCc2nnc(-c3c(C)cccc3O)n2N)n1N`: the total growth inhibition concentration (TGI) in the test on HCT-116 colon is more than 100 µM; in the test with A549 NSCLC, more than 100 µM; in the test on NCI-H522 lung, 97.2 µM; in the test with MDA-N, more than 100 µM; in the test with SK-MEL-5 melanoma it was more than 100 µM; in the test on HCC-2998 colon it was more than 100 µM. For the same molecule, the TGI in the test with MALME-3M melanoma is more than 100 µM; with U251 CNS, 67.5 µM; with COLO 205 colon, more than 31.6 µM; with SF-268 CNS, more than 100 µM; with SR leukemia it was more than 52.5 µM; in the test on M14 melanoma it was more than 100 µM. The total growth inhibition concentration (TGI) was 37.1 µM with CCRF-CEM leukemia; more than 100 µM with SF-295 CNS; more than 100 µM in the test with LOX IMVI melanoma; more than 100 µM in the test with MDA-MB-435; more than 100 µM with K-562 leukemia; more than 100 µM in the test on SF-539 CNS.
Take `Cc1ccc(S(=O)(=O)N2c3ccccc3[C@H]3CCc4c([nH]c5ccccc45)[C@H]32)cc1`: the concentration for total growth inhibition (TGI) in the test with HCT-116 colon, in the test with A549 NSCLC, with NCI/ADR-RES ovarian, in the test with MDA-N, in the test with SK-MEL-5 melanoma and in the test with HCC-2998 colon was more than 100 µM throughout. Also, the TGI in the test on U251 CNS, in the test on COLO 205 colon, in the test on SF-268 CNS, with M14 melanoma, in the test with CCRF-CEM leukemia and with SF-295 CNS was more than 100 µM in each case. The TGI in the test on LOX IMVI melanoma, in the test with OVCAR-8 ovarian, with MDA-MB-435, in the test with K-562 leukemia and in the test on SF-539 CNS was more than 100 µM in each case.
On to `C1CCC(OCc2nnn3c2CCC3)OC1` (stereo not drawn), for which the concentration for total growth inhibition (TGI) with HCT-116 colon, with A549 NSCLC, in the test on NCI-H522 lung, with SK-MEL-5 melanoma, with HCC-2998 colon and in the test with MALME-3M melanoma was more than 100 µM in each case. Further, the concentration for total growth inhibition (TGI) in the test with U251 CNS, in the test on SR leukemia, with M14 melanoma, in the test with CCRF-CEM leukemia, in the test with SF-295 CNS and with LOX IMVI melanoma was more than 100 µM in each case. The TGI with OVCAR-8 ovarian, with K-562 leukemia and in the test on SF-539 CNS was more than 100 µM in each case.
`CN1C(=O)CN2C(Cl)(Cl)C2(c2ccccc2F)c2cc([N+](=O)[O-])ccc21` (stereo not drawn): the concentration for total growth inhibition (TGI) with HCT-116 colon is more than 100 µM; with NCI-H522 lung, more than 100 µM; in the test with SK-MEL-5 melanoma, more than 100 µM; in the test with HCC-2998 colon, 86 µM; with MALME-3M melanoma it was 95.8 µM; with U251 CNS, more than 100 µM. Further, the TGI in the test on COLO 205 colon, in the test with SF-268 CNS, with SR leukemia, with M14 melanoma, with CCRF-CEM leukemia and in the test on SF-295 CNS was more than 100 µM in each case. In addition, the concentration for total growth inhibition (TGI) with LOX IMVI melanoma, with OVCAR-8 ovarian and in the test on K-562 leukemia was more than 100 µM each time.
Take `C[C@H]1C(=O)O[C@@H]1[C@H]1COC(C)(C)O1`: the concentration for total growth inhibition (TGI) in the test with A549 NSCLC, in the test with NCI/ADR-RES ovarian, with MDA-N, with HCC-2998 colon, in the test on U251 CNS and in the test on SF-268 CNS was more than 100 µM each time. In addition, the TGI in the test on SR leukemia, in the test with M14 melanoma, in the test with CCRF-CEM leukemia, in the test on SF-295 CNS, in the test with OVCAR-8 ovarian and in the test with MDA-MB-435 was more than 100 µM each time. Also, in the test with SF-539 CNS, the total growth inhibition concentration (TGI) is more than 100 µM.
On to `O=c1oc2ccccc2n1P(=O)(n1c(=O)oc2ccccc21)n1c(=O)oc2ccccc21`, for which the TGI with HCT-116 colon, in the test with A549 NSCLC, in the test on NCI-H522 lung, in the test on HCC-2998 colon, in the test on MALME-3M melanoma and with U251 CNS was more than 100 µM each time. Also, the concentration for total growth inhibition (TGI) in the test on COLO 205 colon, in the test with SF-268 CNS, with SR leukemia, in the test with M14 melanoma, with CCRF-CEM leukemia and with SF-295 CNS was more than 100 µM throughout. The TGI in the test on LOX IMVI melanoma, in the test with K-562 leukemia and with SF-539 CNS was more than 100 µM each time.
As for `CS/C(C#N)=C(\C#N)SC`, the TGI with HCT-116 colon is more than 100 µM; with A549 NSCLC it was more than 100 µM; in the test on NCI-H522 lung, 3.75 µM; in the test with NCI/ADR-RES ovarian, more than 100 µM; with SK-MEL-5 melanoma, 49.1 µM; in the test with HCC-2998 colon it was 20.9 µM. Further, the TGI was 30.1 µM with MALME-3M melanoma; more than 100 µM with U251 CNS; more than 100 µM in the test on COLO 205 colon; 58 µM in the test on SF-268 CNS; 5.43 µM in the test with SR leukemia; 6.56 µM with M14 melanoma. Further, the TGI with CCRF-CEM leukemia was more than 100 µM; in the test with SF-295 CNS, 53.8 µM; in the test on LOX IMVI melanoma, more than 100 µM; with OVCAR-8 ovarian, 6.06 µM; in the test on MDA-MB-435, 40.5 µM; with K-562 leukemia, 48.4 µM. This molecule gave a total growth inhibition concentration (TGI) in the test with SF-539 CNS of 34.1 µM.
